Patent US20230076310A1, “COMPOSITION USING NOVEL LACTOBACILLUS PLANTARUM KC3 STRAIN FOR PREVENTION OR TREATMENT OF IMMUNE IMPAIRMENT, RESPIRATORY INFLAMMATORY DISEASE, ALLERGY, AND ASTHMA AND USE THEREOF” (KT&G CORPORATION, priority 2020, published 2023)

Tests used:
Format in all cases: in vivo, BALb/c male mice
[1] = system: CXCL-1; assay: Inflammation factors in BAL fluid (ELISA), mouse model of respiratory damage by air pollutants; details: oral, 11 days (KC3 1×10^9 CFU/mouse; positive control 3 mg per kg BW per day)
Method: (§1) BALb/c male mice (Orient Bio Inc., 8-week-old) were divided into groups of 6 mice, and for all groups except for the normal group, components of air pollutants, i.e., 10 mg/ml of coal combustible materials, 10 mg/ml of fly ash, and 5 mg/ml of diesel exhaust particle (DEP) were diluted so that a final concentration of Alum was 1%, and so that a final concentration of each component was 1.5 mg/ml for coal combustible material/fly ash and […] for DEP in a mixture. Then, on each of the 4th, 7th, and 10th days from the start of the experiment, 50 μl of the mixture was directly injected into the airway and nose of the experimental animals according to the Intra-Nazal-Trachea (INT) injection method described in the document (Lim et al., Free Radic Biol Med. 25(6), 635-644. (1998), Shin et al., Korean J. Medicinal Crop Sci 27(3), 218-231. (2019)).
(§2) For a positive control group (dexamethasone, Sigma D2915), lactic acid bacteria (Lactobacillus plantarum KC3, KC3) was diluted at a concentration of 1×10^9 CFU/mouse in a solution containing 0.5% sodium carboxymethyl cellulose (CMC, 419273, Sigma-Aldrich), and then orally administered at a dosage of 3 mg per kg of body weight (BW) per day (for 11 days). On the 12th day after the start of the experiment, an autopsy was performed on the mice, and bronchoalveolar lavage (BAL) fluid was collected.
(§3) To confirm effects of the samples in Examples above on expression levels of inflammation factors in the BAL fluid, an experiment was carried out as follows by applying the method described in the document (Brandt E B et al., J. Allergy Clin. Immunol., 132(5):1194-1204, (2013)).
(§4) An evaluation test was performed using ELISA to measure the expression levels of inflammation factors, such as IL-17A, TNF-α MIP2, and CXCL-1, in the BAL fluid.
(§5) The experiment was carried out in the same manner as in Experimental Examples 4-2 and 4-3, except that […].
(§6) The expression levels of IL-17A, TNF-α MIP2, and CXCL-1 in the BAL fluid were measured using ELISA. IL-17A antibodies (M1700, R&D Systems, Minneapolis, USA), TNF-α antibodies (MTA00B, R&D Systems, Minneapolis, USA), MIP2 antibodies (MM200, R&D Systems, Minneapolis, USA), and CXCL-1 antibodies (MKC00B, R&D Systems, Minneapolis, USA) were diluted with a buffer solution and coated micro-wells, and then cultured at 4° C. for 16 hours. Each well was washed with a washing buffer solution three times, and 10-fold diluted […] was dispensed at 100 μl per well.
(§7) After being left at room temperature for one hour, the wells were washed twice. Then, 100 μl of Avidin-HRP-conjugated antibodies (DY007, R&D Systems, Minneapolis, USA) was treated thereon, and the wells were left again at room temperature for one hour, followed by washing again. A TMB substrate solution (DY007, R&D Systems, Minneapolis, USA) was dispensed at 100 μl per well, and the well plate was left in shadow for 30 minutes. Then, 50 μl of a stopping solution (DY007, R&D Systems, Minneapolis, USA) was treated thereon, and absorbance of the […] was measured at 450 nm.

[2] = system: TNF-α; assay: as above; details: oral, 11 days (KC3 1×10^9 CFU/mouse; positive control 3 mg per kg BW per day)
Method: as §1, §2, §3, §4, §5, §6, §7

[3] = system: IL-17A; assay: as above; details: oral, 11 days (KC3 1×10^9 CFU/mouse; positive control 3 mg per kg BW per day)
Method: as §1, §2, §3, §4, §5, §6, §7

[4] = system: MIP2; assay: as above; details: oral, 11 days (KC3 1×10^9 CFU/mouse; positive control 3 mg per kg BW per day)
Method: as §1, §2, §3, §4, §5, §6, §7

[5] = system: neutrophils in BAL fluid; assay: Number of neutrophils in BAL fluid, mouse model of respiratory damage by air pollutants; details: oral, 11 days (KC3 1×10^9 CFU/mouse; positive control 3 mg per kg BW per day)
Method: as §1
as §2, with “collected. […]” for “collected.”

[6] = system: total number of cells in bronchoalveolar lavage (BAL) fluid; assay: Total number of cells in BAL fluid, mouse model of respiratory damage by air pollutants; details: oral, 11 days (KC3 1×10^9 CFU/mouse; positive control 3 mg per kg BW per day), BAL fluid on 12th day
Method: as §1
as §2, with “collected. […]” for “collected.”

C[C@@H]1C[C@H]2[C@@H]3CCC4=CC(=O)C=C[C@]4(C)[C@@]3(F)[C@@H](O)C[C@]2(C)[C@@]1(O)C(=O)CO [Positive control group, dexamethasone]
CXCL-1 inhibition rate (%) based on induced group [1]: (46%) | CXCL-1 concentration in BAL fluid ([1]; ELISA, induction group 327 ± 41): 174 ± 15 pg/mL | TNF-α inhibition rate (%) based on induced group [2]: (66%) | TNF-α concentration in BAL fluid ([2]; ELISA, induction group 366 ± 45): 121 ± 14 pg/mL | IL-17A inhibition rate (%) based on induced group [3]: (47%) | IL-17A concentration in BAL fluid ([3]; ELISA, induction group 13.4 ± 1.5): 7.0 ± 0.8 pg/mL | MIP2 inhibition rate (%) based on induced group [4]: (19%) | MIP2 concentration in BAL fluid ([4]; ELISA, induction group 68 ± 7): 55 ± 9 pg/mL | Inhibition rate (based on induced group), neutrophils [5]: 10% | Neutrophile No of BAL cel (400X) ([5]; Diff-Qick staining, induction group 119 ± 13): 108 ± 9 | Inhibition rate (based on induction group), total BAL cell [6]: 11% | Total BAL cell ([6]; induction group 81.2 ± 19.8): 72.6 ± 9.5 ×10^4 cells/ml
